Experimental data published in US8598132B2, “Glycosylated indolocarbazoles, method for obtaining same and uses thereof” (Universidad de Oviedo, priority 2008, dated 2013).
pIC50: −log10 of the molar value.

What was measured:
Ikkb = molecular target: T1, Ikkb (Homo sapiens, UniProt O14920); assay: LabChip (Caliper) kinase assay, Ikkb; type: biochemical; conditions: for inhibition at 0.01 µM: compound at 10 nM; for inhibition at 0.01 µM / inhibition at 0.1 µM: read-out: remaining kinase activity (in %) / percentage of inhibition; for inhibition at 0.1 µM: compound at 100 nM; for pIC50: ATP at Km, read-out: CI50 (the source's name)
T1 sequence (O14920 1-756): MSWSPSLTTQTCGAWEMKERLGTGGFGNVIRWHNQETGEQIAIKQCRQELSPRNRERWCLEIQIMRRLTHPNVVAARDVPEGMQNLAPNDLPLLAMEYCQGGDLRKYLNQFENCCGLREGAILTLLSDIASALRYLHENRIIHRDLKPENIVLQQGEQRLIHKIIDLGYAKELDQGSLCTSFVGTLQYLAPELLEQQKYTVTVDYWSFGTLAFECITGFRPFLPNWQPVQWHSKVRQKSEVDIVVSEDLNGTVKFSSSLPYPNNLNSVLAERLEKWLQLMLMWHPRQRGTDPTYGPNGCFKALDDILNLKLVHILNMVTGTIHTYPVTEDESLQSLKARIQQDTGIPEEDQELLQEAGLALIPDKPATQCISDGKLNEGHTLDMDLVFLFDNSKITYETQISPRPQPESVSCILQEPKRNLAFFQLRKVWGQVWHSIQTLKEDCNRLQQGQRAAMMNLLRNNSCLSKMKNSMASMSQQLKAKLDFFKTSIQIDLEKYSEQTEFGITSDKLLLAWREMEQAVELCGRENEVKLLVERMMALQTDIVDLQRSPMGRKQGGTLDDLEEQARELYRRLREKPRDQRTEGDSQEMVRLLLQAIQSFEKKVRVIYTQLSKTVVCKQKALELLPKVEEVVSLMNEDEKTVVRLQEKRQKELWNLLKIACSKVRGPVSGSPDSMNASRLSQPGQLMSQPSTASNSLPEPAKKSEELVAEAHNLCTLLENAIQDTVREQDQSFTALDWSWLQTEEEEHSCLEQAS
Procedure: (§1) The analysis of kinase activity described here was performed using LabChip (Caliper Life Sciences), specifically the Caliper LC3000 and the EZ Reader II instruments.
(§2) The kinase assay used measures the conversion of a fluorescent peptide (substrate) to a phosphorylated product. The reaction mixture, in a microplate well, is introduced by a capillary in a chip where the non-phosphorylated substrate and the phosphorylated product are separated by […]. The intensity of the fluorescent signal over time is related to the reaction progress. The phosphorylated product migrates quicker than the non-phosphorylated substrate and the signals of the two forms of the peptide appear as differentiated peaks. The Caliper determines the peak height and calculates the ratio of product to the peak sum (P/(P+S)). This value is used to compare wells with compounds and wells with controls and thus determine the % of inhibition for the given product.
(§3) The followings kinases were used for the enzymatic inhibition studies, between brackets the value of the Michaelis-Menten constant, Km, of the ATP (Adenosine triphosphate) for each kinase, in μM: obtained from Carna Biosciences: MAPKAPK2 (4.6), AurA (3.6), AurB (5), PKCζ (3.8), RSK1 (23.3), PRAK (5), Erk1 (33.4), PKD2 (32.1), CK1d (16.3), CHK1 (33), ABL (61.7), FYN (36), LYNa (17), CHK2 (57.8), MET (79.5), LCK (28.5), SRC (38), GSK3β (7.3), Erk2 (62.1), PKACα (1.7), AKT2 (186.1), INSR (871.8), p38a (396.5), AKT1(48), MSK1 (21.2), PKCβ2 (84.8), ROCK2 (3.3), PIM2 (4.9), AMPK (38.6), KDR (164.8), IRAK4 (196.5), SGK1 (121.8), SYK (33.5); obtained from Invitrogen: CDK2 (57.6), BTK (123), HGK (80); obtained from Upstate: MST2 (36.6), PKGα (16), PAK2 (1.9), IGF1R (320), FGFR1 (171), MARK1 (33), CAMK2δ (22.4), c-TAK1 (66), DYRK1a (18.1), CaMK4 (3.9), FLT3 (350), c-Raf (6.2), P70S6K (95).
(§4) The compounds were dissolved in 100% DMSO and were diluted at 25 times the final concentration desired for the assay. In the case of the determination of Cl50, serial dilutions were made to reach eight concentrations and give rise to the inhibition curve. 1 μL of each concentration is transferred, in duplicate to a 384-well microplate. 12 μL of enzymatic buffer is added to each well containing purified kinase (several suppliers as indicated above), 100 mM HEPES, pH 7.5, 1 mM DTT (Calbiochem), 0.002% Brij-35 (Sigma) and also in presence of 10 mM MgCl2 as cofactor, except for INSR and IRAK4 wherein 10 mM MnCl2 is used instead of MgCl2. For the kinases CAMK26 and CAMK4, 1 mM CaCl2 and 6.7 μg/mL of calmodulin are also added. For KDR kinase, 0.05% of the CHAPSO detergent is added. For the c-Raf kinase, 10 mM MnCl2 is added. For PKCβ2 0.02 μg/mL of PS/PMA is added. For PKGα se 10 μM of cGMP (cyclic guanosine monophosphate) is added. The compound and the enzyme are left for 15 minutes preincubation and, then, the following are added to each well: 12 μL of peptide buffer/ATP containing 100 mM HEPES, pH 7.5, 1.5 μM peptide marker with fluorescein (specific for the corresponding kinase), ATP (at concentration KM), and 0.002% Brij-35 to start the reaction. Generally, the reactions are incubated for 1-1.5 h at ambient temperature to obtain an adequate conversion (15-40%) of the peptide to the phosphorylated product. The reactions were ended by the addition of 45 μL of buffer containing 0 mM EDTA. The microplates were read by the LabChip 3000 using a 12-channel LabChip. The P/(P+S) values were obtained as described above and the CI50 curves were generated using XIfit.
(§5) Table 9a has the 0150 data obtained in pairs of compound-kinase selected from the compounds of formula (VII), (VIII), (IX), (XVI), (XVII) and (XVIII) after taking inhibition measurements at 100 nM and 10 nM. Those couples that provide >70% of inhibition at 10 nM were consider for measuring its IC50. […]

JAK2 = JAK2 (Homo sapiens, UniProt O60674); assay: LabChip (Caliper) kinase assay, JAK2; type: biochemical; conditions: for inhibition at 0.01 µM / inhibition at 0.1 µM: JAK2, read-out: remaining kinase activity (in %) / percentage of inhibition; for inhibition at 0.01 µM: compound at 10 nM; for inhibition at 0.1 µM: compound at 100 nM; for pIC50: Jak2, ATP at Km, read-out: CI50 (the source's name)
Procedure: as §1, §2, §3, §4, §5

JAK2, sequence (O60674 whole entry, species assumed): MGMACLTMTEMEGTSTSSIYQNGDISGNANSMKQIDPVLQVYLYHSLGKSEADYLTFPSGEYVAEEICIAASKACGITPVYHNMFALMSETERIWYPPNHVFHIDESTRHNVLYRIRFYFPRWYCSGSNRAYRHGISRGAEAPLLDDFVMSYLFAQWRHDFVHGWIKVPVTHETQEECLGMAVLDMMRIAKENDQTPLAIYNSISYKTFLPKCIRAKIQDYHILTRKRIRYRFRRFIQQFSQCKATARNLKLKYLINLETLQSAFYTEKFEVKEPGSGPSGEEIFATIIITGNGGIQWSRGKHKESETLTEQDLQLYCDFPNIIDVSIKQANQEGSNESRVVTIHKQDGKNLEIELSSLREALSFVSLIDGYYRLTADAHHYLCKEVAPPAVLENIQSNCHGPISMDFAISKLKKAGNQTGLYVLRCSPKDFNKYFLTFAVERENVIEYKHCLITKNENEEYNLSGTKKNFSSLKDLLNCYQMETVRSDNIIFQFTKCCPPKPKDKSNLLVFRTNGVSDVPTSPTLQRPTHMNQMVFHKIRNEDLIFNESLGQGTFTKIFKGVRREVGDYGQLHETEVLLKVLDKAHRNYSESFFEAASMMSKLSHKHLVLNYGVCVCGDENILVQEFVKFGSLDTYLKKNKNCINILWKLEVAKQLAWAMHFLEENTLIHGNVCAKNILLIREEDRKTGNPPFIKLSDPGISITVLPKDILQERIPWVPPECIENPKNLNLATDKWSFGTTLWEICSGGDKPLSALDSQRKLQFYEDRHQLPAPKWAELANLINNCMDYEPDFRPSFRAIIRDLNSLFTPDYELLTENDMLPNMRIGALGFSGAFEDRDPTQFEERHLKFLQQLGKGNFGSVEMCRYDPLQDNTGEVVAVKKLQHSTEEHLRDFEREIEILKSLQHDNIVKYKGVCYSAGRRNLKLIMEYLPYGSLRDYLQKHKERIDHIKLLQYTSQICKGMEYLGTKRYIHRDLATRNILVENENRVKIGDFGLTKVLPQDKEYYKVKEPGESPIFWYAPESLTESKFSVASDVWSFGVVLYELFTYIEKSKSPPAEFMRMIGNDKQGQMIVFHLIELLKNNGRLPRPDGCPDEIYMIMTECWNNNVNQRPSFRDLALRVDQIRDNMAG

SMILES	inhibition at 0.01 µM (Ikkb) [%]	inhibition at 0.1 µM (Ikkb) [%]	inhibition at 0.01 µM (JAK2) [%]	inhibition at 0.1 µM (JAK2) [%]	pIC50 (Ikkb)	pIC50 (JAK2)
C[C@@H]1O[C@@H](n2c3ccccc3c3c4c(c5c6ccccc6[nH]c5c32)C(=O)NC4=O)[C@H](O)[C@H](O)[C@H]1O [formula (III), N^13-1′-β-L-rhamnosylarcyriaflavin]	-10	32	-3	33	–	–
C[C@@H]1O[C@@H](n2c3ccccc3c3c4c(c5c6ccccc6[nH]c5c32)C(=O)NC4=O)C[C@H](O)[C@H]1O [formula (IV), N^13-1′-β-L-olivosylarcyriaflavin]	9	60	19	74	–	–
C[C@]12O[C@H](C[C@@H](O)[C@H]1O)n1c3ccccc3c3c4c(c5c6ccccc6n2c5c31)C(=O)NC4=O [formula (IX), N^12-5′(S)-N^13-1′-(R)-L-digitoxosylarcyriaflavin]	–	–	–	–	< 8.00	8.92
C[C@@H]1O[C@@H](n2c3ccccc3c3c4c(c5c6ccccc6[nH]c5c32)C(=O)NC4=O)C[C@@H](O)[C@H]1O [formula (V), N^13-1′-β-L-digitoxosylarcyriaflavin]	37	76	23	65	–	–
C[C@H]1O[C@@H](n2c3ccccc3c3c4c(c5c6ccccc6[nH]c5c32)C(=O)NC4=O)C[C@@H](O)[C@@H]1O [formula (VI), N^13-1′-β-D-olivosylarcyriaflavin]	7	50	42	88	–	–
C[C@]12O[C@H]([C@H](O)[C@H](O)[C@H]1O)n1c3ccccc3c3c4c(c5c6ccccc6n2c5c31)C(=O)NC4=O [formula (VII), N^12-5′(S)-N^13-1′-(R)-L-rhamnosylarcyriaflavin]	–	–	–	–	9.77	9.30
C[C@]12O[C@H](C[C@H](O)[C@H]1O)n1c3ccccc3c3c4c(c5c6ccccc6n2c5c31)C(=O)NC4=O [formula (VIII), N^12-5′(S)-N^13-1′-(R)-L-olivosylarcyriaflavin]	–	–	–	–	> 10.52	9.13
C[C@@H]1O[C@@H](n2c3ccccc3c3c4c(c5c6ccccc6[nH]c5c32)CNC4=O)[C@H](O)[C@H](O)[C@H]1O [formula (XII), N^13-1′-β-L-rhamnosyl-k252c]	-5	12	7	39	–	–
C[C@@H]1O[C@@H](n2c3ccccc3c3c4c(c5c6ccccc6[nH]c5c32)CNC4=O)C[C@H](O)[C@H]1O [formula (XIII), N^13-1′-β-L-olivosyl-k252c]	-5	33	14	79	–	–
C[C@@H]1O[C@@H](n2c3ccccc3c3c4c(c5c6ccccc6[nH]c5c32)CNC4=O)C[C@@H](O)[C@H]1O [formula (XIV), N^13-1′-β-L-digitoxosyl-k252c]	27	24	-4	25	–	–
C[C@H]1O[C@@H](n2c3ccccc3c3c4c(c5c6ccccc6[nH]c5c32)CNC4=O)C[C@@H](O)[C@@H]1O [formula (XV), N^13-1′-β-D-olivosyl-k252c]	-5	16	37	89	–	–
C[C@]12O[C@H]([C@H](O)[C@H](O)[C@H]1O)n1c3ccccc3c3c4c(c5c6ccccc6n2c5c31)CNC4=O [formula (XVI), N^12-5′(S)-N^13-1′-(R)-L-rhamnosyl-k252c]	–	–	–	–	–	9.37
C[C@]12O[C@H](C[C@H](O)[C@H]1O)n1c3ccccc3c3c4c(c5c6ccccc6n2c5c31)CNC4=O [formula (XVII), N^12-5′(S)-N^13-1′-(R)-L-olivosyl-k252c]	–	–	–	–	–	9.24
C[C@]12O[C@H](C[C@@H](O)[C@H]1O)n1c3ccccc3c3c4c(c5c6ccccc6n2c5c31)CNC4=O [formula (XVIII), N^12-5′(S)-N^13-1′-(R)-L-digitoxosyl-k252c]	–	–	–	–	< 7.00	9.28
